Patent US5817640A (Gensia Pharmaceuticals, priority 1995, dated 1998)
Entries after “also recorded” stand apart in the source; their conditions may differ.

How the values were obtained:
Assay type in all cases: in vivo, human
[1] = test system: patients undergoing coronary artery bypass graft (CABG) surgery; assay: Difficulty in weaning from cardiopulmonary bypass (Phase 2); conditions: for Weaning time (cross-clamp removal to termination of bypass): in min (unit assumed); for Weaning difficulty: balloon pump, number of patients / Weaning difficulty: return to bypass, number of patients: placebo 1, p=0.6; for Weaning difficulty: pacemaker, number of patients: placebo 2; for Weaning difficulty: pacemaker, number of patients / Weaning difficulty: other, number of patients / Weaning difficulty: other / Weaning difficulty: pacemaker: p=0.7; for Weaning difficulty: other, number of patients: placebo 5; for Weaning difficulty: vasopressors, number of patients / Weaning difficulty: vasopressors: p=0.19; for Patients with any difficulty weaning, number: placebo 13; for Weaning difficulty: other / Weaning difficulty: pacemaker: placebo […]
Protocol: During surgery, anesthesia was maintained by continuous infusion of fentanyl and midazolam. Routine clinical parameters were recorded using standard operating room monitoring equipment. Continuous 2-lead Holter ECG and TEE data were recorded. Standard surgical procedures (e.g., aorta cross-clamping, crystalloid cardioplegia, cardio-pulmonary bypass, hypothermia) were used. Anastomoses were constructed, aorta cross-clamp removed and patients were discontinued from bypass when body temperature was 37° C. The quality of anastomosis was judged by the surgeon. Difficulty in weaning from bypass was judged by need for one or more of the following: pacemaker, return to bypass, balloon pump or vasopressor administration. Hemodynamic measurements, including heart rate, arterial blood pressure, pulmonary capillary wedge pressure and cardiac output, were recorded before sternotomy, 15 and 30 min after bypass and upon chest closure. Radial artery and pulmonary artery pressures, myocardial and whole body temperature, O2 saturation, end-tidal CO2 and arterial blood gases were measured, and ECG recordings were obtained as clinically indicated. Hemodynamic variables (blood pressure, heart rate, pulmonary capillary wedge pressure) were controlled within 20% of baseline using prescribed regimens.
The incidence of adverse clinical outcomes, such as cardiac death (death of patient attributable to primarily cardiac causes, non-fatal transmural MI (as measured by the appearance of a new Q-wave on 12-lead ECG plus a CK-MB value of ≥50 units), non-transmural MI (CK-MB value of ≥50 units), congestive heart failure (low cardiac output requiring intra-aortic balloon pump or left ventricular assist device) or life-threatening dysrhythmia (ventricular fibrillation, or ventricular tachycardia requiring cardioversion or drug treatment) was compared between the placebo and treatment groups. For the diagnosis of myocardial infarction, ECG tracings and CK-MB values were assessed centrally by observers blinded to treatment. The difficulty of weaning the patient from bypass, if any, was compared between placebo and treatment groups by noting need for one or more of the following: pacemaker, return to bypass, balloon pump or use of vasopressors.
8. Difficulty in Weaning. Patients were considered to have difficulty in weaning if they needed one or more of the following interventions: pacemaker, return to bypass, balloon pump or use of vasopressors. The number of patients receiving each of the above interventions was analyzed using a X^2 and Fisher's exact test, as was the number of patients classified as having difficulty in weaning. In addition, the time to weaning (defined as time from cross-clamp removal to end of bypass) in the patients experiencing difficulty were compared by a 1-way analysis of variance.
As noted, patients were determined as being difficult to remove from cardiopulmonary bypass if they required one or more of the following interventions: insertion of a pacemaker, return to bypass, use of a balloon pump or administration of vasopressors, or another intervention which the investigation determines is indicative of difficulty in weaning. […] When a combination of the high and low dose groups were compared to placebo (Table 9b), the reduced need for vasopressor support approached statistical significance (p=0.08). […] There were no differences in any of the weaning difficulty parameters discussed above between the high and low dose groups (Table 9c).

[2] = test system: patients undergoing coronary artery bypass graft (CABG) surgery; assay: Incidence of MI and combined clinical outcome by plasma level of AICA riboside, Phase 3
From the text: The data in Table 13 reflect diagnosis of MI by both ECG and CK-MB (as described above with respect to Table 12).

[3] = Safety assessment / adverse events in CABG patients (Phase 2); conditions: for Patients with one or more adverse events: placebo 29 of 37
Protocol: In addition to the hemodynamic monitoring described above the following tests were performed at screening, on the first post-operative day and at discharge:
4. Any adverse events were recorded throughout by the investigator, who assessed their severity and the relationship of these adverse experiences to the treatment.
11. Adverse Effects. The incidence, severity and drug-relatedness of any adverse effects were tabulated by treatment group by decreasing incidence of such effects in the high dose group. Statistical analysis was not performed.

[4] = AICA riboside plasma level <0.25 μg/ml, n=209
[5] = AICA riboside plasma level <0.25 μg/ml, n=211
[6] = plasma level 0.25-2.00 μg/ml, n=83
[7] = plasma level 0.25-2.00 μg/ml, n=89
[8] = plasma level 2.00-3.00 μg/ml, n=114
[9] = plasma level 2.00-3.00 μg/ml, n=116
[10] = plasma level 3.00-4.00 μg/ml, n=44
[11] = plasma level 4.00-5.00 μg/ml, n=61
[12] = plasma level 5.00-6.00 μg/ml, n=49
[13] = plasma level 5.00-6.00 μg/ml, n=50

SMILES: NC(=O)c1ncn([C@@H]2O[C@H](CO)[C@@H](O)[C@H]2O)c1N [AICA riboside, 5-amino-1-β-D-ribofuranosyl-imidazole-4-carboxamide]
- Weaning time (cross-clamp removal to termination of bypass) ([1]; 0.05 mg/kg/min, n=41, all patients, placebo 23 +/- 2.9): 20 +/- 2.2
- Weaning difficulty: balloon pump, number of patients ([1]; 0.05 mg/kg/min, n=41): 0 patients
- Weaning difficulty: return to bypass, number of patients ([1]; 0.05 mg/kg/min, n=41): 0 patients
- Weaning difficulty: pacemaker, number of patients ([1]; 0.05 mg/kg/min, n=41): 4 patients
- Weaning difficulty: other, number of patients ([1]; 0.05 mg/kg/min, n=41): 3 patients
- Weaning difficulty: vasopressors, number of patients ([1]; 0.05 mg/kg/min, n=41, placebo 8): 3 patients
- Patients with any difficulty weaning, number ([1]; 0.05 mg/kg/min, n=41, p=0.17): 7 patients
- Weaning difficulty: vasopressors ([1]; 0.05 mg/kg/min, n=41, placebo 21.6%): 7.3%
- Patients with any difficulty weaning ([1]; 0.05 mg/kg/min, n=41, placebo 35%, p=0.17): 17%
- Weaning difficulty: other ([1]; 0.05 mg/kg/min, n=41): 7.3%
- Weaning difficulty: pacemaker ([1]; 0.05 mg/kg/min, n=41): 9.8%
- Weaning time (cross-clamp removal to termination of bypass) ([1]; 0.05 mg/kg/min, patients with difficulty, placebo 31.8 +/- 6.3): 20 +/- 4.6
- Weaning time (cross-clamp removal to termination of bypass) ([1]; 0.1 mg/kg/min, n=34, all patients, placebo 23 +/- 2.9): 17 +/- 1.8
- Weaning difficulty: balloon pump, number of patients ([1]; 0.10 mg/kg/min, n=35): 0 patients
- Weaning difficulty: return to bypass, number of patients ([1]; 0.10 mg/kg/min, n=35): 0 patients
- Weaning difficulty: pacemaker, number of patients ([1]; 0.10 mg/kg/min, n=35): 4 patients
- Weaning difficulty: other, number of patients ([1]; 0.10 mg/kg/min, n=35): 4 patients
- Weaning difficulty: vasopressors, number of patients ([1]; 0.10 mg/kg/min, n=35, placebo 8): 4 patients
- Patients with any difficulty weaning, number ([1]; 0.10 mg/kg/min, n=35, p=0.17): 8 patients
- Weaning difficulty: vasopressors ([1]; 0.10 mg/kg/min, n=35, placebo 21.6%): 11.4%
- Patients with any difficulty weaning ([1]; 0.10 mg/kg/min, n=35, placebo 35%, p=0.17): 23%
- Weaning difficulty: other ([1]; 0.10 mg/kg/min, n=35): 11.4%
- Weaning difficulty: pacemaker ([1]; 0.10 mg/kg/min, n=35): 11.4%
- Weaning time (cross-clamp removal to termination of bypass) ([1]; 0.1 mg/kg/min, patients with difficulty, placebo 31.8 +/- 6.3): 20.8 +/- 4.2
- Patients with any difficulty weaning, number ([1]; 0.05 + 0.10 mg/kg/min combined, n=76, p=0.06): 15 patients
- Patients with any difficulty weaning ([1]; 0.05 + 0.10 mg/kg/min combined, n=76, placebo 35.1%, p=0.06): 19.7%
- Vasopressors required, number of patients ([1]; 0.05 + 0.10 mg/kg/min combined, placebo 8, p=0.08): 7 patients
- Vasopressors required ([1]; 0.05 + 0.10 mg/kg/min combined, placebo 21.6%, p=0.08): 9.2%
- Need for vasopressor support vs placebo ([1]; low and high dose groups, p=0.19 separately, p=0.08 combined): strong trend towards a reduced need for vasopressor support; also recorded: less likely to receive vasopressor assistance
- Weaning difficulty vs placebo ([1]; p=0.17 when compared separately, p=0.06 combined dose groups): towards a reduction in weaning difficulty in the drug treated groups
- Incidence of myocardial infarction [2, 4]: 4.3%
- Myocardial infarction, number of patients [2, 4]: 9 patients
- Combined clinical outcome, number of patients [2, 5]: 29 patients
- Incidence of combined clinical outcome [2, 5]: 13.7%
- Most effective plasma level of AICA riboside ([2]; from Table 13): 3 to 6 µg/mL
- Incidence of myocardial infarction [2, 6]: 2.4%
- Myocardial infarction, number of patients [2, 6]: 2 patients
- Combined clinical outcome, number of patients [2, 7]: 9 patients
- Incidence of combined clinical outcome [2, 7]: 10.1%
- Incidence of myocardial infarction [2, 8]: 4.4%
- Myocardial infarction, number of patients [2, 8]: 5 patients
- Combined clinical outcome, number of patients [2, 9]: 11 patients
- Incidence of combined clinical outcome [2, 9]: 9.5%
- Combined clinical outcome, number of patients [2, 10]: 3 patients
- Incidence of combined clinical outcome [2, 10]: 6.8%
- Incidence of myocardial infarction [2, 10]: 2.3%
- Myocardial infarction, number of patients [2, 10]: 1 patients
- Combined clinical outcome, number of patients [2, 11]: 2 patients
- Incidence of combined clinical outcome [2, 11]: 3.3%
- Myocardial infarction, number of patients [2, 11]: 0 patients
- Incidence of myocardial infarction [2, 12]: 4.1%
- Myocardial infarction, number of patients [2, 12]: 2 patients
- Combined clinical outcome, number of patients [2, 13]: 3 patients
- Incidence of combined clinical outcome [2, 13]: 6.0%
- Incidence of myocardial infarction ([2]; plasma level >6.00 μg/ml, n=44): 2.3%
- Myocardial infarction, number of patients ([2]; plasma level >6.00 μg/ml, n=44): 1 patients
- Combined clinical outcome, number of patients ([2]; plasma level >6.00 μg/ml, n=46): 4 patients
- Incidence of combined clinical outcome ([2]; plasma level >6.00 μg/ml, n=46): 8.7%
- Patients with one or more adverse events ([3]; 0.05 mg/kg/min): 28/41
- Patients with one or more adverse events ([3]; 0.1 mg/kg/min): 30/35
- Adverse events in individual patient ([3]; 0.38 mg/kg/min, patient A5): no events other than S-T segment elevation on the ECG post-bypass
- Frequency of adverse events vs placebo ([3]; drug-treated patients, 0.05 and 0.1 mg/kg/min): no evidence that any of these events occurred more frequently in drug-treated patients compared with placebo
- Tolerability ([3]; first patients, 0.19 or 0.38 mg/kg/min): well tolerated
- Serious adverse experiences ([3]; first six patients, 0.19 or 0.38 mg/kg/min): no serious adverse experiences
- Serum/urinary uric acid and crystalluria ([3]; five drug-treated patients, 0.19 or 0.38 mg/kg/min): significant hyperuricemia and elevated urinary uric acid levels with crystalluria
- Urine coloration ([3]; five patients at 0.19 or 0.38 mg/kg/min, patient A14 at 0.05 mg/kg/min): same green coloration; also recorded: clear, green coloration
